According to US20230119013A1, “N-CYANOPYRROLIDINES WITH ACTIVITY AS USP30 INHIBITORS” (MISSION THERAPEUTICS LIMITED, priority 2020, published 2023):

How the values were obtained:
[1] = target: Cathepsin K (Homo sapiens, UniProt P43235); experiment: Cathepsin IC50, Cathepsin K; format: biochemical
[2] = target: Cathepsin V (Homo sapiens, UniProt O60911); experiment: Cathepsin IC50, Cathepsin V; format: biochemical
[3] = system: UCHL1, USP1, USP2, USP6, USP9x, USP10, USP15, USP16, USP20, USP21, USP22, USP25, USP28, USP35, USP36, USP46/UAF1; experiment: DUB biochemical IC50 assays (off-target panel)
[4] = system: TOM20 ubiquitylation; experiment: TOM20-ubiquitylation assay; format: cell-based, human; conditions: antimycin A/oligomycin mitophagy trigger
Description: Human cell lines can be challenged with mitochondrial depolarizing agents (ionophores (eg. CCCP, valinomycin), mitochondrial complex inhibitors (oligomycin, antimycin A)) to induce ubiquitylation of TOM20, which is then further promoted in the presence of USP30 inhibitors. TOM20 ubiquitylation is subsequently assessed through western blotting of the cell lysates, with TOM20 ubiquitylation adduct detection possible due to an 8 kDa molecule weight increase for each molecule of ubiquitin added, resulting in laddering of a TOM20 immunoreactive band. TOM20-ubiquitylation levels can be quantified using chemiluminescence densitometry of laddered immunoreactive bands.

[5] = Brain homogenate free fraction by equilibrium dialysis; format: in vitro ADME; conditions: mouse brain homogenate; read-out: Binding Mouse Brain fu, br
Description: (§1) log P: partition coefficient; lipophilicity measurement. log D: distribution co-efficient; lipophilicity measurement. TPSA: topological polar surface area. Turbidimetric solubility: Test compound solution prepared in DMSO diluted into aqueous buffer. Turbidimetry is used as the end-point by measuring absorbance at 620 nm. FaSSIF: simulated intestinal fluid in fasted state measured at pH 6.5. Hep Cl mouse: in vitro hepatocyte clearance in mouse cells. Hep Cl human: in vitro hepatocyte clearance in human cells. Plasma fu,p: The free fraction of a compound in plasma preparation determined by in vitro equilibrium dialysis. It is understood that only unbound (free) compound is capable of engaging with the target. Brain fu,br: The free fraction of a compound in brain homogenate preparation determined by in vitro equilibrium dialysis. It is understood that only unbound (free) compound is capable of engaging with the target. Clu: in vitro clearance. Clu as defined here is the scaled clearance, in turn calculated from the intrinsic clearance. The intrinsic clearance is the predicted clearance due to hepatic metabolic reactions, determined from incubation of a compound in a hepatocyte preparation. […] Cl in vivo clearance: Pharmacokinetic measurement of the volume of plasma (or any matrix) from which a substance is completely removed per unit time.

[6] = target: Cathepsin B (Homo sapiens, UniProt P07858); experiment: Cathepsin IC50, Cathepsin B; format: biochemical
[7] = system: USP2, USP10, USP16, USP21, USP22, USP25, USP28; experiment: DUB IC50, seven DUBs; format: biochemical; conditions: range over the seven DUBs
[8] = system: T1, USP2, USP10, USP16, USP21, USP22, USP25, USP28; experiment: DUB IC50, seven DUBs; format: biochemical; conditions: range over the seven DUBs
T1 construct: DUB IC50 (μM) USP2, USP10, USP16, USP21, USP22, USP25, USP28; other: range over the seven DUBs

[9] = Log D measurement; format: physicochemical; conditions: pH 7.4; read-out: Log D measured at pH 7.4
Description: as §1

[10] = target: T2, USP30 (Homo sapiens, UniProt Q70CQ3); experiment: USP30 biochemical IC50 assay (fluorescence polarisation); conditions: for fold more potent against USP30 than Reference Example A / fold more potent against USP30 than Reference Example B / fold more potent against USP30 than Reference Example C / fold more potent against USP30 than Reference Example D: biochemical assay; for IC50: read-out: USP30 IC50
T2 construct: purchased Boston Biochem E582
T2 sequence (Q70CQ3 57-517 limits assumed): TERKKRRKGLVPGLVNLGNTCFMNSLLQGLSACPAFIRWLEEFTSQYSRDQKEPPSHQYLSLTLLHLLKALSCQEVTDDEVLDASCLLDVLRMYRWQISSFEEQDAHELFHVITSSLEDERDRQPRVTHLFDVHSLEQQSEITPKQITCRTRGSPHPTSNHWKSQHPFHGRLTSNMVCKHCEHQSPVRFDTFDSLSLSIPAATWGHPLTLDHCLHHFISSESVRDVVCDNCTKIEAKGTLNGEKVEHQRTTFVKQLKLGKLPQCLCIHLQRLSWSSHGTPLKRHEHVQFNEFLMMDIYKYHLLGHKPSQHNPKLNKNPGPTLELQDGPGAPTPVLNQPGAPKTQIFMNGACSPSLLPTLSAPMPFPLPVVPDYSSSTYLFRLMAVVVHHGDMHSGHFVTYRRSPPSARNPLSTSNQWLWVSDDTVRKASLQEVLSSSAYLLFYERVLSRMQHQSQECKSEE
Method: Dilution plates were prepared at 21 times the final concentration (2100 μM for a final concentration of 100 μM) in 50% DMSO in a 96-well polypropylene V-bottom plate (Greiner #651201). A typical 8-point dilution series would be 100, 30, 10, 3, 1, 0.3, 0.1, 0.03 μM final. Reactions were performed in duplicate in black 384 well plates (small volume, Greiner 784076) in a final reaction volume of 21 μl. Either 1 μl of 50% DMSO or diluted compound was added to the plate. USP30 (Boston Biochem #E582) was diluted in reaction buffer (40 mM Tris, pH 7.5, 0.005% Tween 20, 0.5 mg/ml BSA, 5 mM beta-mercaptoethanol) to achieve a final assay concentration of 4 nM, and 10 μl of diluted USP30 was added to the compound. Enzyme and compound were incubated for 30 min at room temp. Reactions were initiated by the addition of 50 nM of TAMRA labelled peptide linked to ubiquitin via an iso-peptide bond as fluorescence polarisation substrate. Reactions were read immediately after addition of substrate and following a 2-hour incubation at room temperature. Readings were performed on a Pherastar Plus (BMG Labtech). λ Excitation 540 nm; Emission 590 nm.

[11] = target: T3, hERG potassium channel (Homo sapiens, UniProt Q12809); experiment: hERG potassium channel in stably expressed CHO cells; format: cell-based; conditions: for IC50: 0.01 to 30 μM, n=3; for inhibition at 30 µM: human, CHO cells stably expressing hERG, read-out: inhibition of the hERG current amplitude
T3 construct: expressed in transfected cells
T3 sequence (Q12809 whole entry): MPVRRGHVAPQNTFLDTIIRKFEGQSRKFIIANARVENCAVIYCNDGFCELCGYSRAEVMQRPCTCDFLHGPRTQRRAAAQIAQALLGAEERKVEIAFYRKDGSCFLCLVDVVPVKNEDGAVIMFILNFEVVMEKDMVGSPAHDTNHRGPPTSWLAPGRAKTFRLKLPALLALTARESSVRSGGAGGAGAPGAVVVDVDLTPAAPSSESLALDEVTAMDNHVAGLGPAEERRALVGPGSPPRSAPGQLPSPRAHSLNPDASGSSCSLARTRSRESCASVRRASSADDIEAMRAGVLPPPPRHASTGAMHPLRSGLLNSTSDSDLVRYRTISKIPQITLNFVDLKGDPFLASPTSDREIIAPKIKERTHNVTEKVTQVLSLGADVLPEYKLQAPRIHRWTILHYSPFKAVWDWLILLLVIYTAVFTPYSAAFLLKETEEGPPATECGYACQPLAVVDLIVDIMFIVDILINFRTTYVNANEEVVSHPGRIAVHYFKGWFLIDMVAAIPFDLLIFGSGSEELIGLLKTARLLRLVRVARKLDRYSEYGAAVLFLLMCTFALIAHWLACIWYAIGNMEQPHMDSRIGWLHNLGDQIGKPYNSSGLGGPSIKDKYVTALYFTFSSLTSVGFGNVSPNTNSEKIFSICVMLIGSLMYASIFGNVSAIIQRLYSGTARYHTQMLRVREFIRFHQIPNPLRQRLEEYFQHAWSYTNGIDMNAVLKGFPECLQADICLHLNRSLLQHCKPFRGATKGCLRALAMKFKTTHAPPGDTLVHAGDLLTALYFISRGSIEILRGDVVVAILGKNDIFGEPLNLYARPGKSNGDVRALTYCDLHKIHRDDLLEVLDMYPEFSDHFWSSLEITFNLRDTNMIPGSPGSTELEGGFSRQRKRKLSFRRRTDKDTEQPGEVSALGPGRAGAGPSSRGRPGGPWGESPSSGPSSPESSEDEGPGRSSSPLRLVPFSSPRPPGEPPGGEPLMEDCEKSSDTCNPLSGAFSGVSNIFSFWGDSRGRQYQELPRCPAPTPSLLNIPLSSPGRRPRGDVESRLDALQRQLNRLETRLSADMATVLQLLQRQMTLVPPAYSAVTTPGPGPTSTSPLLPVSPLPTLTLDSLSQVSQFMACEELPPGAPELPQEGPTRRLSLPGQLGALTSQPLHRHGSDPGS
Method: The hERG predictor assay provides valuable information about the possible binding of test compounds to the potassium channel and potential QT prolongation on […]. Inhibition of the hERG current causes QT interval prolongation resulting in potentially fatal ventricular tachyarrhythmia (Torsades de Pointes). Typically, assay data may be generated from an automated patch-clamp assay platform.
Example 1 was evaluated for effects on the hERG potassium channel, in stably expressed CHO cells at concentrations between 0.01 and 30 μM.
Example 2 was evaluated for effects on the hERG potassium channel, in stably expressed CHO cells at concentrations between 0.01 and 30 μM.

[12] = Plasma free fraction by equilibrium dialysis; format: in vitro ADME; conditions: mouse plasma; read-out: Binding Mouse Plasma fu, p
Description: as §1

[13] = system: hepatocyte; experiment: Hepatocyte clearance mouse; format: in vitro ADME; conditions: mouse hepatocytes
Description: as §1

Cathepsin K, sequence (P43235 115-329, species assumed): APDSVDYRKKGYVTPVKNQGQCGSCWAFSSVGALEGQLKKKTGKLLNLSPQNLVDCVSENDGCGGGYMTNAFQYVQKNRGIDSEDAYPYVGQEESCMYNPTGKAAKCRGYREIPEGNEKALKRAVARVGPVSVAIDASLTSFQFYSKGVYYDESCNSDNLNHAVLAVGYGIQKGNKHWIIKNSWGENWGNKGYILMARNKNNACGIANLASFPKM
Cathepsin V, sequence (O60911 114-334, species assumed): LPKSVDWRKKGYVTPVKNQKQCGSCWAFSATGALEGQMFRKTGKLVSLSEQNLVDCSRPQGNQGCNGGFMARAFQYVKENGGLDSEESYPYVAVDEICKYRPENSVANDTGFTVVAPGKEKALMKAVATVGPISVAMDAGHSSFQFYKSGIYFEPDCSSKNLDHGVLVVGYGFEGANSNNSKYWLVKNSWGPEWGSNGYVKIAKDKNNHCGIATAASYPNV

SMILES | IC50 [1] | IC50 [2] | more selective for USP30 over DUB panel ([3]; v the 16 DUBs of the 9th table) | TOM20-Ub 1.5-fold gain EC1.5x (μM) [4] | fraction unbound [5] | IC50 [6] | DUB selectivity preference for USP30 v 7 DUBs [7] | IC50 [8] | logD [9] | fold more potent against USP30 than Reference Example A [10] | fold more potent against USP30 than Reference Example B [10] | fold more potent against USP30 than Reference Example C [10] | fold more potent against USP30 than Reference Example D [10] | IC50 [10] | IC50 [11] | inhibition at 30 µM [11] | fraction unbound [12] | Hepatocyte Cl mouse scaled Clu [13] | more selective for USP30 over DUB panel ([3]; v the 14 DUBs of the 10th table)
COC[C@@H]1C[C@@H](NC(=O)c2ncc(-c3cccc(OC(F)(F)F)c3)o2)CN1C#N [Example 1, N-((3R,5S)-1-Cyano-5-(methoxymethyl)pyrrolidin-3-yl)-5-(3-(trifluoromethoxy)phenyl)oxazole-2-carboxamide] | 16.5 µM | 132 µM | (≥880 × more selective | 0.011 (n = 6) μM | 0.043 | 44.3 µM | 880-14380 | 4.4 to 71.9 µM | 2.9 | 14 fold | 34 fold | 62 fold | 880 fold | 0.005 µM | 34.3 µM | 44.3% | 0.06 | 84.7 mL/min/kg | 
C[C@@H]1C[C@@H](NC(=O)c2ncc(-c3cccc(OC(F)(F)F)c3)o2)CN1C#N [Example 2, N-((3R,5R)-1-Cyano-5-methylpyrrolidin-3-yl)-5-(3-(trifluoromethoxy)phenyl)oxazole-2-carboxamide] | 9.8 µM | > 30 µM |  | 0.009 (n = 4) μM | 0.028 | > 30 µM | 940->20000 | ≥ 4.7 µM | 3.4 | 14 fold | 34 fold | 62 fold | 880 fold | 0.005 µM | 24.7 µM | 54.3% | 0.05 | 130.6 mL/min/kg | (≥940 × more selective
